# Laboratory results reported in patent US20250296971A1, “GASTRIC INHIBITORY PEPTIDE RECEPTOR LIGANDS” (priority 2021, published 2025).
# *1 amine or outer side, *2 acyl side, *3 side chain or, on linkers, in order; H or OH if unused. Where a SMILES comes first, the peptide text is derived from it. Bridges are numbered along the chain shown (N, C = ends). [ ]: non-standard residue; d: D form. Trp(5-Cl) = N[C@@H](Cc1c[nH]c2ccc(Cl)cc12)C(=O)O; Pyridine(2,6-diCH2) = c1cc(C[*:1])nc(C[*:2])c1; Phe(3-Cl) = N[C@@H](Cc1cccc(Cl)c1)C(=O)O; Phe(4-Cl) = N[C@@H](Cc1ccc(Cl)cc1)C(=O)O; mXylylene = c1cc(C[*:1])cc(C[*:2])c1; N(CH2CH2COOH)Gly = O=C(O)CCNCC(=O)O; Hyp = O=C(O)[C@@H]1C[C@@H](O)CN1; pS = N[C@@H](COP(=O)(O)O)C(=O)O; Aic = NC1(C(=O)O)Cc2ccccc2C1; Suc = O=C(CCC(=O)[*:2])[*:1]; hCys = N[C@@H](CCS)C(=O)O; Ac5c = NC1(C(=O)O)CCCC1; Thp = NC1(C(=O)O)CCOCC1; Aib = CC(C)(N)C(=O)O
# Biological target: T1, GIPR (CHO-K1-hGIPR cells) (Homo sapiens, UniProt P48546)
# T1 construct: host or cells: CHO-K1
# T1 sequence (P48546 22-466): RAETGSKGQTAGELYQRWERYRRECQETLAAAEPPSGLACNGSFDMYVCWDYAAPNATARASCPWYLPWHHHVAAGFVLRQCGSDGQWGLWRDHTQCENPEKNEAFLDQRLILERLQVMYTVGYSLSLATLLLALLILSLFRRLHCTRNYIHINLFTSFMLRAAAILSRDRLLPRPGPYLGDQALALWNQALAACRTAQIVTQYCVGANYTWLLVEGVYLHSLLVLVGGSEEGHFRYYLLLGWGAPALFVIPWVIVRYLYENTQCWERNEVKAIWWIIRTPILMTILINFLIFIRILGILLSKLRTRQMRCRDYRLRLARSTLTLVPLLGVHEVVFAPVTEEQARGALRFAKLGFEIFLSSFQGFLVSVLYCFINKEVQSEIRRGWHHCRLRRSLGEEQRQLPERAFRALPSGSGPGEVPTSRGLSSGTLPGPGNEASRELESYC
# Assay: FACS binding assay
# Details: competition with 20 nM GIP-057, 4° C., 1 hour, read-out: pIC50 Category (converted)
# How it was run: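 Read-out: flow cytometric median fluorescence intensity, APC/Cy5 channel, plotted vs peptide conc.; 4PL fit → EC50/pEC50 or IC50/pIC50. Cells: CHO-K1-hGIPR, Accutase-detached, 500.000/mL in PBS + 1% FCS. Detection: APC-streptavidin 1 μg/mL, 30 min, on ice.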
row,IC50 [nM],Compound
1,< 10,"CC[C@H](C)[C@@H]1NC(=O)[C@H](CC(C)C)NC(=O)C2(CCOCC2)NC(=O)[C@@H](NC(=O)[C@@H](CC(C)C)NC(=O)[C@H](CCC(=O)O)NC(=O)CN(CCC(=O)O)C(=O)[C@H](Cc2c[nH]c3ccc(Cl)cc23)NC(=O)[C@H](Cc2c[nH]c3ccccc23)NC(=O)[C@H](CC(=O)O)NC(C)=O)CSCc2cccc(n2)CSC[C@@H](C(N)=O)NC1=O [GIP-196, Ac-Asp-Trp-5Clw-Nglu-Glu-leu-[Cys(2Lut)-Thp-Leu-Ile-Cys]-NH2] (Ac-DW[Trp(5-Cl)][N(CH2CH2COOH)Gly]E[dL]C[Thp]LIC-NH2; linker 7-11 via Pyridine(2,6-diCH2))"
2,< 10,"CC[C@H](C)[C@@H]1NC(=O)[C@H](CC(C)C)NC(=O)C(C)(C)NC(=O)[C@@H](NC(=O)[C@@H](CC(C)C)NC(=O)[C@H](CCC(=O)O)NC(=O)[C@@H]2CCCN2C(=O)[C@H](Cc2c[nH]c3ccc(Cl)cc23)NC(=O)[C@H](Cc2c[nH]c3ccccc23)NC(=O)CCC(=O)O)CSCc2cccc(c2)CSC[C@@H](C(N)=O)NC1=O [GIP-198, HO-Succinyl-Trp-5Clw-Pro-Glu-leu-[Cys(3MeBn)-Aib-Leu-Ile-Cys]-NH2] (Suc-W[Trp(5-Cl)]PE[dL]C[Aib]LIC-NH2; linker 6-10 via mXylylene)"
3,< 10,CC[C@H](C)[C@@H]1NC(=O)[C@H](CC(C)C)NC(=O)C2(CCOCC2)NC(=O)[C@@H](NC(=O)[C@@H](CC(C)C)NC(=O)[C@H](CCC(=O)O)NC(=O)[C@@H]2CCCN2C(=O)[C@H](Cc2c[nH]c3ccc(Cl)cc23)NC(=O)[C@H](Cc2c[nH]c3ccccc23)NC(=O)CCC(=O)O)CSCc2cccc(c2)CSC[C@@H](C(N)=O)NC1=O [GIP-199] (Suc-W[Trp(5-Cl)]PE[dL]C[Thp]LIC-NH2; linker 6-10 via mXylylene)
4,< 10,"CC[C@H](C)[C@@H]1NC(=O)[C@H](CC(C)C)NC(=O)C2(CCOCC2)NC(=O)[C@@H](NC(=O)[C@@H](CC(C)C)NC(=O)[C@H](CCC(=O)O)NC(=O)[C@@H]2C[C@@H](O)CN2C(=O)[C@H](Cc2c[nH]c3ccc(Cl)cc23)NC(=O)[C@H](Cc2c[nH]c3ccccc23)NC(=O)[C@H](CC(=O)O)NC(C)=O)CCSCc2cccc(n2)CSC[C@@H](C(N)=O)NC1=O [GIP-200, Ac-Asp-Trp-5Clw-Hyp-Glu-leu-[Hcy(2Lut)-Thp-Leu-Ile-Cys]-NH2] (Ac-DW[Trp(5-Cl)][Hyp]E[dL][hCys][Thp]LIC-NH2; linker 7-11 via Pyridine(2,6-diCH2))"
5,< 10,"CC[C@H](C)[C@@H]1NC(=O)[C@H](CC(C)C)NC(=O)C2(CCOCC2)NC(=O)[C@@H](NC(=O)[C@@H](CC(C)C)NC(=O)[C@H](CCC(=O)O)NC(=O)[C@@H]2C[C@@H](O)CN2C(=O)[C@H](Cc2c[nH]c3ccc(Cl)cc23)NC(=O)[C@H](Cc2c[nH]c3ccccc23)NC(=O)[C@H](CC(=O)O)NC(C)=O)CSCc2cccc(n2)CSCC[C@@H](C(N)=O)NC1=O [GIP-201, Ac-Asp-Trp-5Clw-Hyp-Glu-leu-[Cys(2Lut)-Thp-Leu-Ile-Hcy]-NH2] (Ac-DW[Trp(5-Cl)][Hyp]E[dL]C[Thp]LI[hCys]-NH2; linker 7-11 via Pyridine(2,6-diCH2))"
6,< 10,"CC[C@H](C)[C@@H]1NC(=O)[C@H](CC(C)C)NC(=O)C2(CCOCC2)NC(=O)[C@@H](NC(=O)[C@@H](CC(C)C)NC(=O)[C@H](CCC(=O)O)NC(=O)[C@@H]2C[C@@H](O)CN2C(=O)[C@H](Cc2c[nH]c3ccc(Cl)cc23)NC(=O)[C@H](Cc2c[nH]c3ccccc23)NC(=O)[C@H](CC(=O)O)NC(C)=O)CCSCc2cccc(n2)CSCC[C@@H](C(N)=O)NC1=O [GIP-202, Ac-Asp-Trp-5Clw-Hyp-Glu-leu-[Hcy(2Lut)-Thp-Leu-Ile-Hcy]-NH2] (Ac-DW[Trp(5-Cl)][Hyp]E[dL][hCys][Thp]LI[hCys]-NH2; linker 7-11 via Pyridine(2,6-diCH2))"
7,< 10,"CC[C@H](C)[C@@H]1NC(=O)[C@H](CC(C)C)NC(=O)C2(CCCC2)NC(=O)[C@@H](NC(=O)[C@@H](CC(C)C)NC(=O)[C@H](CCC(=O)O)NC(=O)[C@@H]2C[C@@H](O)CN2C(=O)[C@H](Cc2c[nH]c3ccc(Cl)cc23)NC(=O)[C@H](Cc2c[nH]c3ccccc23)NC(=O)[C@H](CC(=O)O)NC(C)=O)CSCc2cccc(n2)CSC[C@@H](C(N)=O)NC1=O [GIP-203, Ac-Asp-Trp-5Clw-Hyp-Glu-leu-[Cys(2Lut)-Eca-Leu-Ile-Cys]-NH2] (Ac-DW[Trp(5-Cl)][Hyp]E[dL]C[Ac5c]LIC-NH2; linker 7-11 via Pyridine(2,6-diCH2))"
8,< 10,"CC[C@H](C)[C@@H]1NC(=O)[C@H](CC(C)C)NC(=O)C2(CCOCC2)NC(=O)[C@@H](NC(=O)[C@@H](CC(C)C)NC(=O)[C@H](CCC(=O)O)NC(=O)[C@@H]2C[C@@H](O)CN2C(=O)[C@H](Cc2c[nH]c3ccc(Cl)cc23)NC(=O)[C@H](Cc2c[nH]c3ccccc23)NC(=O)[C@H](CCC(N)=O)NC(C)=O)CSCc2cccc(n2)CSC[C@@H](C(N)=O)NC1=O [GIP-204, Ac-Gln-Trp-5Clw-Hyp-Glu-leu-[Cys(2Lut)-Thp-Leu-Ile-Cys]-NH2] (Ac-QW[Trp(5-Cl)][Hyp]E[dL]C[Thp]LIC-NH2; linker 7-11 via Pyridine(2,6-diCH2))"
9,< 10,"CC[C@H](C)[C@@H]1NC(=O)[C@H](CC(C)C)NC(=O)C2(CCOCC2)NC(=O)[C@@H](NC(=O)[C@@H](CC(C)C)NC(=O)[C@H](CC(N)=O)NC(=O)[C@@H]2C[C@@H](O)CN2C(=O)[C@H](Cc2c[nH]c3ccc(Cl)cc23)NC(=O)[C@H](Cc2c[nH]c3ccccc23)NC(=O)[C@H](CC(=O)O)NC(C)=O)CSCc2cccc(n2)CSC[C@@H](C(N)=O)NC1=O [GIP-205, Ac-Asp-Trp-5Clw-Hyp-Asn-leu-[Cys(2Lut)-Thp-Leu-Ile-Cys]-NH2] (Ac-DW[Trp(5-Cl)][Hyp]N[dL]C[Thp]LIC-NH2; linker 7-11 via Pyridine(2,6-diCH2))"
10,< 10,"CC[C@H](C)[C@@H]1NC(=O)[C@H](CC(C)C)NC(=O)C2(Cc3ccccc3C2)NC(=O)[C@@H](NC(=O)[C@@H](CC(C)C)NC(=O)[C@H](CCC(=O)O)NC(=O)[C@@H]2C[C@@H](O)CN2C(=O)[C@H](Cc2c[nH]c3ccc(Cl)cc23)NC(=O)[C@H](Cc2c[nH]c3ccccc23)NC(=O)[C@H](CC(=O)O)NC(C)=O)CSCc2cccc(n2)CSC[C@@H](C(N)=O)NC1=O [GIP-206, Ac-Asp-Trp-5Clw-Hyp-Glu-leu-[Cys(2Lut)-Aic-Leu-Ile-Cys]-NH2] (Ac-DW[Trp(5-Cl)][Hyp]E[dL]C[Aic]LIC-NH2; linker 7-11 via Pyridine(2,6-diCH2))"
11,< 10,"CC[C@H](C)[C@@H]1NC(=O)[C@H](CC(C)C)NC(=O)C2(CCOCC2)NC(=O)[C@@H](NC(=O)[C@@H](CC(C)C)NC(=O)[C@H](CCC(=O)O)NC(=O)[C@@H]2C[C@@H](O)CN2C(=O)[C@H](Cc2c[nH]c3ccc(Cl)cc23)NC(=O)[C@H](Cc2c[nH]c3ccccc23)NC(=O)[C@H](COP(=O)(O)O)NC(C)=O)CSCc2cccc(n2)CSC[C@@H](C(N)=O)NC1=O [GIP-207, Ac-Pse-Trp-5Clw-Hyp-Glu-leu-[Cys(2Lut)-Thp-Leu-Ile-Cys]-NH2] (Ac-[pS]W[Trp(5-Cl)][Hyp]E[dL]C[Thp]LIC-NH2; linker 7-11 via Pyridine(2,6-diCH2))"
12,< 10,"CC[C@H](C)[C@@H]1NC(=O)[C@H](CC(C)C)NC(=O)C2(CCOCC2)NC(=O)[C@@H](NC(=O)[C@@H](CC(C)C)NC(=O)[C@H](COP(=O)(O)O)NC(=O)[C@@H]2C[C@@H](O)CN2C(=O)[C@H](Cc2c[nH]c3ccc(Cl)cc23)NC(=O)[C@H](Cc2c[nH]c3ccccc23)NC(=O)[C@H](CC(=O)O)NC(C)=O)CSCc2cccc(n2)CSC[C@@H](C(N)=O)NC1=O [GIP-208, Ac-Asp-Trp-5Clw-Hyp-Pse-leu-[Cys(2Lut)-Thp-Leu-Ile-Cys]-NH2] (Ac-DW[Trp(5-Cl)][Hyp][pS][dL]C[Thp]LIC-NH2; linker 7-11 via Pyridine(2,6-diCH2))"
13,< 10,"CC[C@H](C)[C@@H]1NC(=O)[C@H](CC(C)C)NC(=O)C2(CCOCC2)NC(=O)[C@@H](NC(=O)[C@@H](CC(C)C)NC(=O)[C@H](CCC(=O)O)NC(=O)[C@@H]2C[C@@H](O)CN2C(=O)[C@H](Cc2c[nH]c3ccc(Cl)cc23)NC(=O)[C@H](Cc2cccc(Cl)c2)NC(=O)[C@H](CC(=O)O)NC(C)=O)CSCc2cccc(n2)CSC[C@@H](C(N)=O)NC1=O [GIP-209, Ac-Asp-Mcf-5Clw-Hyp-Glu-leu-[Cys(2Lut)-Thp-Leu-Ile-Cys]-NH2] (Ac-D[Phe(3-Cl)][Trp(5-Cl)][Hyp]E[dL]C[Thp]LIC-NH2; linker 7-11 via Pyridine(2,6-diCH2))"
14,< 10,"CC[C@H](C)[C@@H]1NC(=O)[C@H](CC(C)C)NC(=O)C2(CCOCC2)NC(=O)[C@@H](NC(=O)[C@@H](CC(C)C)NC(=O)[C@H](CCC(=O)O)NC(=O)[C@@H]2C[C@@H](O)CN2C(=O)[C@H](Cc2c[nH]c3ccc(Cl)cc23)NC(=O)[C@H](Cc2ccc(Cl)cc2)NC(=O)[C@H](CC(=O)O)NC(C)=O)CSCc2cccc(n2)CSC[C@@H](C(N)=O)NC1=O [GIP-210, Ac-Asp-Pcf-5Clw-Hyp-Glu-leu-[Cys(2Lut)-Thp-Leu-Ile-Cys]-NH2] (Ac-D[Phe(4-Cl)][Trp(5-Cl)][Hyp]E[dL]C[Thp]LIC-NH2; linker 7-11 via Pyridine(2,6-diCH2))"
